Experimental data reported in patent US20250101039A1, “RIFAMYCIN DERIVATIVES FOR THE TREATMENT OF DISEASES” (priority 2022, published 2025).
Converted amounts (≈) assume the structure as drawn.

Legend:
[1] = test system: A. baumannii RpoB H535C; test: microbe, parasite or virus in culture; assay type: cell-based, Acinetobacter baumannii; settings: Table 4, RPMI + FCS
[2] = test system: M. abscessus (strain ATCC 19977); test: MIC by broth microdilution, M. abscessus; assay type: cell-based, Mycobacterium abscessus; settings: strain ATCC 19977, Middlebrook 7H9 broth + ADC
[3] = test system: H. influenzae (strain ATCC 49247); test: MIC by broth microdilution, H. influenzae; assay type: cell-based, Hemophilus influenzae; settings: strain ATCC 49247, Hemophilus test medium broth
[4] = test system: Enterococcus faecalis (strain ATCC 51575); test: MIC by broth microdilution, E. faecalis; assay type: cell-based; settings: strain ATCC 51575, cation adjusted Mueller Hinton broth
[5] = test system: S. aureus; test: MIC by broth microdilution, S. aureus; assay type: cell-based, Staphylococcus aureus; settings: for MIC S. aureus: cation adjusted Mueller Hinton broth, 35° C. 20 hours
[6] = test system: S. pneumoniae (strain ATCC 49619); test: MIC by broth microdilution, S. pneumoniae; assay type: cell-based, Streptococcus pneumoniae; settings: strain ATCC 49619, cation adjusted Mueller Hinton broth + 5% laked horse blood
[7] = test system: A. baumannii RpoB H535L; test: microbe, parasite or virus in culture; assay type: cell-based, Acinetobacter baumannii; settings: Table 4, RPMI + FCS
[8] = test system: Staphylococcus epidermidis (strain ATCC 12228); test: MIC by broth microdilution, S. epidermidis; assay type: cell-based; settings: strain ATCC 12228, cation adjusted Mueller Hinton broth
[9] = test system: S. pyogenes (strain IHMA 1117021); test: MIC by broth microdilution, S. pyogenes; assay type: cell-based, Streptococcus pyogenes; settings: strain IHMA 1117021, cation adjusted Mueller Hinton broth + 5% laked horse blood
[10] = test system: A. baumannii RpoB H535Q; test: microbe, parasite or virus in culture; assay type: cell-based, Acinetobacter baumannii; settings: Table 4, RPMI + FCS
[11] = test system: A. baumannii; test: MIC by broth microdilution, A. baumannii (WT); assay type: cell-based, Acinetobacter baumannii; settings: for MIC A. baumannii: RPMI medium supplemented with 10% FCS, 35° C. 20 hours; for A. baumannii MIC, WT: Table 4, RPMI + FCS
[12] = test system: M. smegmatis (strain ATCC 700084); test: MIC, M. smegmatis (BacTiter-Glo); assay type: cell-based, Mycobacterium smegmatis; settings: strain ATCC 700084, Middlebrook 7H9 + ADC, 90% growth inhibition, 20 hours
[13] = test system: Enterococcus faecium (strain NCTC 12204); test: MIC by broth microdilution, E. faecium; assay type: cell-based; settings: strain NCTC 12204, cation adjusted Mueller Hinton broth
[14] = test system: M. tuberculosis (H37Rv strain ATCC 27294); assay type: cell-based, Mycobacterium tuberculosis

Row | SMILES | A. baumannii MIC, RpoB H535C [1] | MIC M. abscessus [2] | MIC H. influenzae [3] | MIC E. faecalis [4] | MIC S. aureus [5] | MIC S. pneumoniae [6] | A. baumannii MIC, RpoB H535L [7] | MIC S. epidermidis [8] | MIC S. pyogenes [9] | A. baumannii MIC, RpoB H535Q [10] | MIC A. baumannii [11] | A. baumannii MIC, WT [11] | MIC M. smegmatis [12] | MIC E. faecium [13] | MIC M. tuberculosis [14] | MIC ([5]; Staphylococcus aureus, 20 h, read-out: MIC S. aureus, cation adjusted Mueller Hinton broth, 35° C. 20 hours)
1 | CCCN1C2CCC1CC1(C2)N=C2C(=C3NC(=O)/C(C)=C\C=C\[C@H](C)[C@H](O)[C@@H](C)[C@@H](O)[C@@H](C)[C@H](OC(C)=O)[C@H](C)[C@@H](OC)/C=C/O[C@@]4(C)Oc5c(C)c(O)c(c2c5C4=O)C3=O)N1 (single isomer, unassigned) [Compound 20B] | 0.008 µg/mL | 8 µg/mL | 0.25 µg/mL (≈ 0.291 µM) | 1 µg/mL (≈ 1.16 µM) | 0.004 µg/mL (≈ 0.00466 µM) | < 0.002 µg/mL | 0.5 µg/mL | < 0.002 µg/mL | < 0.002 µg/mL | 0.004 µg/mL | < 0.002 µg/mL | ≤0.002 µg/mL | 0.29 µg/mL | 0.5 µg/mL (≈ 0.582 µM) | 0.01 µg/mL (≈ 0.0116 µM) | –
2 | COC1C=COC2(C)Oc3c(C)c(O)c4c(c3C2=O)C2=NC3(CCC5CCC(C3)N5C)NC2=C(NC(=O)C(C)=CC=CC(C)C(O)C(C)C(O)C(C)C(OC(C)=O)C1C)C4=O (mixture of isomers) [8 (A + B + C + D)] | 0.125 µg/mL | 32 µg/mL | 0.125 µg/mL | 2 µg/mL | 0.03 µg/mL | < 0.002 µg/mL | 1 µg/mL | < 0.002 µg/mL | 0.016 µg/mL | 0.06 µg/mL | 0.008 µg/mL | 0.008 µg/mL | 1.19 µg/mL | 0.125 µg/mL | 0.01 µg/mL | –
3 | CCCN1C2CCC1CC1(C2)N=C2C(=C3NC(=O)/C(C)=C\C=C\[C@H](C)[C@H](O)[C@@H](C)[C@@H](O)[C@@H](C)[C@H](OC(C)=O)[C@H](C)[C@@H](OC)/C=C/O[C@@]4(C)Oc5c(C)c(O)c(c2c5C4=O)C3=O)N1 (single isomer, unassigned) [Compound 20A] | – | – | – | – | 0.008 µg/mL (≈ 0.00931 µM) | – | – | – | – | – | 0.25 µg/mL (≈ 0.291 µM) | – | – | – | – | –
4 | COC1C=COC2(C)Oc3c(C)c(O)c4c(c3C2=O)C2=NC3(NC2=C(NC(=O)C(C)=CC=CC(C)C(O)C(C)C(O)C(C)C(OC(C)=O)C1C)C4=O)C1CCCC3CNC1 (mixture of isomers) [16 (A + B)] | 0.016 µg/mL | 4 µg/mL | 0.06 µg/mL | 0.5 µg/mL | 0.004 µg/mL | < 0.002 µg/mL | 1 µg/mL | < 0.002 µg/mL | < 0.002 µg/mL | 0.008 µg/mL | < 0.002 µg/mL | ≤0.002 µg/mL | 0.33 µg/mL | 0.125 µg/mL | – | –
5 | CO[C@H]1/C=C/O[C@@]2(C)Oc3c(C)c(O)c4c(c3C2=O)C2=NC3(NC2=C(NC(=O)/C(C)=C\C=C\[C@H](C)[C@H](O)[C@@H](C)[C@@H](O)[C@@H](C)[C@H](OC(C)=O)[C@@H]1C)C4=O)C1CN2CC3CN(C1)C2 (stereo partly shown) [Compound 19] | – | – | – | – | 0.004 µg/mL (≈ 0.00474 µM) | – | – | – | – | – | 1 µg/mL (≈ 1.18 µM) | – | – | – | – | –
6 | CO[C@H]1/C=C/O[C@@]2(C)Oc3c(C)c(O)c4c(c3C2=O)C2=NC3(NC2=C(NC(=O)/C(C)=C\C=C\[C@H](C)[C@H](O)[C@@H](C)[C@@H](O)[C@@H](C)[C@H](OC(C)=O)[C@@H]1C)C4=O)C1CN(C)CC3CN(C)C1 (stereo partly shown) [Compound 18] | 0.25 µg/mL | 32 µg/mL | 0.125 µg/mL (≈ 0.145 µM) | 2 µg/mL (≈ 2.33 µM) | 0.016 µg/mL (≈ 0.0186 µM) | < 0.002 µg/mL | 4 µg/mL | < 0.002 µg/mL | < 0.002 µg/mL | 0.03 µg/mL | 0.008 µg/mL (≈ 0.0093 µM) | 0.008 µg/mL | 1.11 µg/mL | 0.125 µg/mL (≈ 0.145 µM) | 0.01 µg/mL (≈ 0.0116 µM) | –
7 | CO[C@H]1/C=C/O[C@@]2(C)Oc3c(C)c(O)c4c(c3C2=O)C2=NC3(CCCN(C)CC3)NC2=C(NC(=O)/C(C)=C\C=C\[C@H](C)[C@H](O)[C@@H](C)[C@@H](O)[C@@H](C)[C@H](OC(C)=O)[C@@H]1C)C4=O (single isomer, unassigned) [Compound 7A] | 0.03 µg/mL | 16 µg/mL | 0.06 µg/mL (≈ 0.0733 µM) | 0.5 µg/mL (≈ 0.611 µM) | 0.008 µg/mL (≈ 0.00977 µM) | < 0.002 µg/mL | 1 µg/mL | < 0.002 µg/mL | < 0.002 µg/mL | 0.016 µg/mL | 0.004 µg/mL (≈ 0.00488 µM) | 0.004 µg/mL | 0.54 µg/mL | 0.06 µg/mL (≈ 0.0733 µM) | 0.01 µg/mL (≈ 0.0122 µM) | –
8 | CO[C@H]1/C=C/O[C@@]2(C)Oc3c(C)c(O)c4c(c3C2=O)C2=NC3(CC5CCC(C3)N5)NC2=C(NC(=O)/C(C)=C\C=C\[C@H](C)[C@H](O)[C@@H](C)[C@@H](O)[C@@H](C)[C@H](OC(C)=O)[C@@H]1C)C4=O (single isomer, unassigned) [Compound 12A] | – | – | – | – | 0.06 µg/mL (≈ 0.0734 µM) | – | – | – | – | – | 0.06 µg/mL (≈ 0.0734 µM) | – | – | – | – | –
9 | CO[C@H]1/C=C/O[C@@]2(C)Oc3c(C)c(O)c4c(c3C2=O)C2=NC3(CC5CCC(C3)N5C)NC2=C(NC(=O)/C(C)=C\C=C\[C@H](C)[C@H](O)[C@@H](C)[C@@H](O)[C@@H](C)[C@H](OC(C)=O)[C@@H]1C)C4=O (single isomer, unassigned) [Compound 13A] | – | – | – | – | – | – | – | – | – | – | 0.03 µg/mL (≈ 0.0361 µM) | – | – | – | – | 0.03 µg/mL (≈ 0.0361 µM)
